Consider 28 compounds from patent US9890138B2, “Diaminopyrimidine derivatives and processes for the preparation thereof” (YUHAN CORPORATION, priority 2011, dated 2018).

Counter-ions that a name gives are not always drawn.

This assay deals with T1, human 5-HT4(a) (Homo sapiens, UniProt Q13639).
T1 construct: host or cells: GeneBlAzer HTR4-CRE-bla CHO-K1 cells
T1 sequence (Q13639 1-387 isoform Q13639-2): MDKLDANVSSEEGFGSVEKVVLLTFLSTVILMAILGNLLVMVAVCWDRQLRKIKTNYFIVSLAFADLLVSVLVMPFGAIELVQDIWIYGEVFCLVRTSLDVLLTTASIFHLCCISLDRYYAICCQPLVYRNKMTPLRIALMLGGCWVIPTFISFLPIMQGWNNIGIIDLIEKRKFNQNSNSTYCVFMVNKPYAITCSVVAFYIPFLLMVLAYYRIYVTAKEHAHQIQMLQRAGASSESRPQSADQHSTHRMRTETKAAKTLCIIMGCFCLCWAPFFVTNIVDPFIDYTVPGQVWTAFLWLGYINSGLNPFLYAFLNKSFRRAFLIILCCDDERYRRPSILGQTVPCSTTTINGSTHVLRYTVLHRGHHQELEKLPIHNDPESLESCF
Description: Evaluation of agonistic activity in CHO-K1 cells expressing human 5-HT4(a) (GeneBlAzer HTR4-CRE-bla CHO-K1, beta-lactamase reporter). Conditions: CHO-K1 cells stably expressing human 5-HT4(a). The assay is classed as cell-based. As for the experimental part:
Test Example 1: Evaluation of Agonistic Activity in CHO-K1 Cells Expressing Human 5-HT4(a)
As CHO-K1 cells stably expressing human 5-HT4(a), we used the GeneBlAzer HTR4-CRE-bla CHO-K1 cells (Invitrogen Corp.). The cells were cultured, under the condition of 37[…] and 5% CO2, in a DMEM supplemented with 10% fetal bovine serum (FBS), 25 mM HEPES (pH7.4), 600 μg/ml hygromycin B, 0.1 mM non-essential amino acids, 100 unit/ml penicillin and 100 μg/ml streptomycin. Subcultures were performed three times per one week, each being at less than 80% confluence. At the previous day before treating test compounds, the cells were collected using 0.5% trypsin/EDTA and then diluted with a DMEM supplemented with 1% FBS, 25 mM HEPES, and 0.1 mM non-essential amino acids into 3.125×10^5 cells/ml. 32 μl of the diluted cells were added into 384-well plate (10^4 cells per well) and then incubated overnight. After the overnight culture, 8 μl of the medium having 1% of DMSO was added into the cell-free control well and the non-stimulating control well, respectively. 8 μl of the respective test compound dilutions (which had been prepared by diluting by 100-times with the medium as mentioned in the above) having 1% of DMSO were added to the respective remaining wells. After being cultured in the incubator for 5 hours, the wells of the 384-plate were treated with the substrate solution (8 μl per well) prepared according to the vendor's instruction (i.e., Invitrogen's instruction), and then incubated in the dark room for additional two hours. Agonistic activities on 5-HT4 receptor were evaluated, on the basis of fluorescence values of the cleavage-products by beta-lactamase. After exciting to 410 nm of wavelength using a fluorescence detector (Genios Pro), we measured the fluorescence values at two emission wavelengths (first wavelength: 465 nm, second wavelength: 535 nm). Data were analyzed on the basis of the ratio of fluorescence intensities of each well at the respective wavelengths. Each EC50 value was calculated by non-linear regression analysis using the “GraphPad Prism” program, based on the activities according to 8-different concentrations of the test compounds.
The compound `CCCc1cc(N2CCC(NCC)C2)nc(Nc2ccc(F)cc2)n1` (stereo not shown) [Example 13, 4-[3-(ethylamino)pyrrolidin-1-yl]-N-(4-fluorophenyl)-6-propylpyrimidin-2-amine] returned an EC50 of 0.12 nM.

As to `CCCc1cc(N2CC[C@H](NC(C)=O)C2)nc(Nc2ccc(F)cc2)n1` [Example 17, (S)-N-{1-[2-(4-fluorophenylamino)-6-propylpyrimidin-4-yl]pyrrolidin-3-yl}acetamide], the EC50 turned out to be 0.35 nM.

For `CCCc1cc(N2CC[C@H](NCC)C2)nc(Nc2ccc(F)cc2)n1` [Example 18, (S)-4-[3-(ethylamino)pyrrolidin-1-yl]-N-(4-fluorophenyl)-6-propylpyrimidin-2-amine], the midpoint of the response, the EC50, lay at 0.14 nM.

`CCCc1cc(N2CC[C@H](NC)C2)nc(Nc2ccc(F)cc2)n1` [Example 22, (S)-N-(4-fluorophenyl)-4-[3-(methylamino)pyrrolidin-1-yl]-6-propylpyrimidin-2-amine]: the EC50 turned out to be 0.33 nM.

Take `CCCc1cc(N2CCC[C@H]2COC)nc(Nc2ccc(F)c([N+](=O)[O-])c2)n1` [Example 31, (S)-N-(4-fluoro-3-nitrophenyl)-4-[2-(methoxymethyl)pyrrolidin-1-yl]-6-propylpyrimidin-2-amine]: the EC50 is 0.13 nM.

Turning to `CCCc1cc(N2CCC[C@H]2COC)nc(Nc2cccc([N+](=O)[O-])c2)n1` [Example 32, (S)-4-[2-(methoxymethyl)pyrrolidin-1-yl]-N-(3-nitrophenyl)-6-propylpyrimidin-2-amine], the EC50 was found to be 0.23 nM.

`CCCc1cc(N2CCC[C@H]2COC)nc(Nc2ccc(Cl)c([N+](=O)[O-])c2)n1` [Example 33, (S)-N-(4-chloro-3-nitrophenyl)-4-[2-(methoxymethyl)pyrrolidin-1-yl]-6-propyl pyrimidin-2-amine] had a 50% effective concentration (EC50) of 0.059 nM.

Compound `CCCc1cc(N2CCC[C@H]2COC)nc(Nc2cccc(C#N)c2)n1` [Example 34, (S)-3-{4-[2-(methoxymethyl)pyrrolidin-1-yl]-6-propylpyrimidin-2-ylamino}benzonitrile] yielded a 50% effective concentration (EC50) of 0.16 nM.

In turn, `CCCc1cc(N2CCC[C@H]2COC)nc(Nc2cccc(C(F)(F)F)c2)n1` [Example 36, (S)-4-[2-(methoxymethyl)pyrrolidin-1-yl]-6-propyl-N-[3-(trifluoromethyl)phenyl]pyrimidin-2-amine] returned an EC50 of 0.243 nM.

Regarding `CCCc1cc(N2CCC[C@H]2COC)nc(Nc2ccc(C)c([N+](=O)[O-])c2)n1` [Example 40, (S)-4-[2-(methoxymethyl)pyrrolidin-1-yl]-N-(4-methyl-3-nitrophenyl)-6-propylpyrimidin-2-amine], a half-maximal response (EC50) required 0.03 nM.

`CCCc1cc(N2CCC[C@H]2COC)nc(Nc2ccc(F)c(C(F)(F)F)c2)n1` [Example 41, (S)-N-[4-fluoro-3-(trifluoromethyl)phenyl]-4-[2-(methoxymethyl)pyrrolidin-1-yl]-6-propylpyrimidin-2-amine] had an EC50 of 0.15 nM.

With `CCCc1cc(N2CCC[C@H]2COC)nc(Nc2ccc(N)c(C(F)(F)F)c2)n1` [Example 42, (S)-N^1-{4-[2-(methoxymethyl)pyrrolidin-1-yl]-6-propylpyrimidin-2-yl}-3-(trifluoromethyl)benzene-1,4-diamine], the EC50 stood at 0.033 nM.

Consider `CCCc1cc(N2CCC[C@H]2COC)nc(Nc2ccc(F)c(C#N)c2)n1` [Example 43, (S)-2-fluoro-5-{4-[2-(methoxymethyl)pyrrolidin-1-yl]-6-propylpyrimidin-2-ylamino}benzonitrile], for which the EC50 was found to be 0.178 nM.

In the case of `CCCc1cc(N2CCC[C@H]2COC)nc(Nc2ccc(C)c(C#N)c2)n1` [Example 44, (S)-5-{4-[2-(methoxymethyl)pyrrolidin-1-yl]-6-propylpyrimidin-2-ylamino}-2-methylbenzonitrile], the EC50 stood at 0.022 nM.

With `CCCc1cc(N2CCC[C@H]2COC)nc(Nc2ccc(N)c(C#N)c2)n1` [Example 45, (S)-2-amino-5-{4-[2-(methoxymethyl)pyrrolidin-1-yl]-6-propylpyrimidin-2-ylamino}benzonitrile], the response was half-maximal at 0.036 nM (EC50).

As for `CCCc1cc(N2CCC[C@H]2COC)nc(Nc2ccc(N)c([N+](=O)[O-])c2)n1` [Example 46, (S)-N^1-{4-[2-(methoxymethyl)pyrrolidin-1-yl]-6-propylpyrimidin-2-yl}-3-nitrobenzene-1,4-diamine], the EC50 was 0.0097 nM.

Consider `CCCc1cc(N2CC[C@H](N)C2)nc(Nc2ccc(F)cc2)n1` [Example 47, (S)-4-(3-aminopyrrolidin-1-yl)-N-(4-fluorophenyl)-6-propylpyrimidin-2-amine dihydrochloride], for which the EC50 stood at 0.38 nM.

`CCCc1cc(N2CC[C@H](NC)C2)nc(Nc2cccc(C#N)c2)n1` [Example 50, (S)-3-{4-[3-(methylamino)pyrrolidin-1-yl]-6-propylpyrimidin-2-ylamino}benzonitrile] returned an EC50 of 0.012 nM.

As for `CCCc1cc(N2CC[C@H](O)C2)nc(Nc2cccc(C#N)c2)n1` [Example 52, (S)-3-[4-(3-hydroxypyrrolidin-1-yl)-6-propylpyrimidin-2-ylamino]benzonitrile], the EC50 stood at 0.33 nM.

`CCCc1cc(N2CCC[C@H]2C)nc(Nc2cccc(C#N)c2)n1` [Example 53, (R)-3-[4-(2-methylpyrrolidin-1-yl)-6-propylpyrimidin-2-ylamino]benzonitrile]: it took 0.098 nM to reach a half-maximal effect (EC50).

On to `CCCc1cc(N2CC[C@H](NC(C)=O)C2)nc(Nc2cccc(C#N)c2)n1` [Example 54, (S)-N-{1-[2-(3-cyanophenylamino)-6-propylpyrimidin-4-yl]pyrrolidin-3-yl}acetamide], for which it took 0.032 nM to reach a half-maximal effect (EC50).

As to `CCCc1cc(N2CC[C@H](NCC)C2)nc(Nc2cccc(C#N)c2)n1` [Example 55, (S)-3-{4-[3-(ethylamino)pyrrolidin-1-yl]-6-propylpyrimidin-2-ylamino}benzonitrile], the response was half-maximal at 0.016 nM (EC50).

Regarding `CCCc1cc(N2CC[C@H](CNC(=O)OC(C)(C)C)C2)nc(Nc2cccc(C#N)c2)n1` [Example 56, (R)-tert-butyl{1-[2-(3-cyanophenylamino)-6-propylpyrimidin-4-yl]pyrrolidin-3-yl}methylcarbamate], the EC50 worked out at 0.312 nM.

Compound `CCCc1cc(N2CC[C@@H](O)C2)nc(Nc2cccc(C#N)c2)n1` [Example 57, (R)-3-[4-(3-hydroxypyrrolidin-1-yl)-6-propylpyrimidin-2-ylamino]benzonitrile] yielded an EC50 of 0.389 nM.

On to `CCCc1cc(N2CCC(NC)C2)nc(Nc2cccc(C#N)c2)n1` (stereo not shown) [Example 59, 3-{4-[3-(methylamino)pyrrolidin-1-yl]-6-propylpyrimidin-2-ylamino}benzonitrile dihydrochloride], for which a half-maximal effect (EC50) was put at 0.028 nM.

Compound `CCCc1cc(N2CC[C@H](N)C2)nc(Nc2cccc(C#N)c2)n1` [Example 60, (S)-3-[4-(3-aminopyrrolidin-1-yl)-6-propylpyrimidin-2-ylamino]benzonitrile dihydrochloride] gave an EC50 of 0.047 nM.

Compound `CCCC(=O)N[C@H]1CCN(c2cc(CCC)nc(Nc3cccc(C#N)c3)n2)C1` [Example 61, (S)-N-{1-[2-(3-cyanophenylamino)-6-propylpyrimidin-4-yl]pyrrolidin-3-yl}butyramide] yielded an EC50 of 0.15 nM.

Consider `CCCc1cc(N2CC[C@H](NC(=O)C3CCCC3)C2)nc(Nc2cccc(C#N)c2)n1` [Example 62, (S)-N-{1-[2-(3-cyanophenylamino)-6-propylpyrimidin-4-yl]pyrrolidin-3-yl}cyclopentanecarboxamide], for which the concentration giving a half-maximal response (EC50) turned out to be 0.36 nM.

Broadly, the EC50 is the concentration needed to bring the measured effect to its halfway point. The low end stands for an effect from little substance, the high end for a need for much substance.
